# Test results taken from PubChem BioAssay AID248 (DTP/NCI, 2004).
# Values joined by “and” are separate entries in the source; they are usually repeats but may differ in a detail not shown here. Identical values can stand only once. Inconclusive results and toxic doses are left out.
# Tested on: L1210 leukemia ip in BDF1 mice, survival T/C
# Assay: NCI In Vivo Anticancer Drug Screen. Data for tumor model L1210 Leukemia (intraperitoneal) in B6D2F1 (BDF1) mice
# Conditions: endpoint: mean survival time, higher = longer survival
# Method in brief: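 In this screen, tumor-bearing mice given compound are compared to those given vehicle, and their survival values are reported as a treated-to-control quotient.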
# [1] = dose: 100.0 mg/kg/injection, schedule: Q01DX009 (ip), vehicle: Klucel (hydroxypropylcellulose) (HPC)
# [2] = dose: 200.0 mg/kg/injection, schedule: Q01DX009 (ip), vehicle: Klucel (hydroxypropylcellulose) (HPC)
# [3] = dose: 400.0 mg/kg/injection, schedule: Q01DX009 (ip), vehicle: Klucel (hydroxypropylcellulose) (HPC)
# [4] = dose: 100.0 mg/kg/injection, schedule: Q01DX009 (ip), vehicle: saline with Tween-80
# [5] = dose: 200.0 mg/kg/injection, schedule: Q01DX009 (ip), vehicle: saline with Tween-80
# [6] = dose: 100.0 mg/kg/injection, schedule: Q01DX001 (ip), vehicle: saline
# [7] = dose: 200.0 mg/kg/injection, schedule: Q01DX001 (ip), vehicle: saline
# [8] = dose: 400.0 mg/kg/injection, schedule: Q01DX001 (ip), vehicle: saline
# [9] = dose: 100.0 mg/kg/injection, schedule: Q01DX009 (ip), vehicle: saline
# [10] = dose: 200.0 mg/kg/injection, schedule: Q01DX009 (ip), vehicle: saline
# [11] = dose: 100.0 mg/kg/injection, schedule: Q04DX003 (ip), vehicle: saline with Tween-80
# [12] = dose: 200.0 mg/kg/injection, schedule: Q04DX003 (ip), vehicle: saline with Tween-80
# [13] = dose: 400.0 mg/kg/injection, schedule: Q04DX003 (ip), vehicle: saline with Tween-80
# [14] = dose: 50.0 mg/kg/injection, schedule: Q01DX009 (ip), vehicle: saline with Tween-80
# [15] = dose: 100.0 mg/kg/injection, schedule: Q04DX003 (ip), vehicle: Klucel (hydroxypropylcellulose) (HPC)
# [16] = dose: 200.0 mg/kg/injection, schedule: Q04DX003 (ip), vehicle: Klucel (hydroxypropylcellulose) (HPC)
# [17] = dose: 400.0 mg/kg/injection, schedule: Q04DX003 (ip), vehicle: Klucel (hydroxypropylcellulose) (HPC)
# [18] = dose: 100.0 mg/kg/injection, schedule: Q04DX003 (ip), vehicle: saline
# [19] = dose: 200.0 mg/kg/injection, schedule: Q04DX003 (ip), vehicle: saline
structure (smiles),measurement,setting,value
NC(=O)c1n[nH]c(C2OCC(O)C2O)c1I (stereo not drawn),T/C,"dose: 100.0 mg/kg/injection, schedule: Q01DX005 (ip), vehicle: saline",100 % of control
same,T/C,"dose: 200.0 mg/kg/injection, schedule: Q01DX005 (ip), vehicle: saline",108 % of control
CC(COS(C)(=O)=O)(COS(C)(=O)=O)Cc1ccccc1,T/C,[1],103 % of control
same,T/C,[2],95 % of control
same,T/C,[3],93 % of control
O=C(O)c1cccc([N+](=O)[O-])c1C(=O)O,T/C,[4],95 % of control
same,T/C,"dose: 100.0 mg/kg/injection, schedule: Q04DX002 (ip), vehicle: Klucel (hydroxypropylcellulose) (HPC)",98 % of control
same,T/C,[5],95 % of control
same,T/C,"dose: 200.0 mg/kg/injection, schedule: Q04DX002 (ip), vehicle: Klucel (hydroxypropylcellulose) (HPC)",88 % of control
same,T/C,"dose: 400.0 mg/kg/injection, schedule: Q04DX002 (ip), vehicle: Klucel (hydroxypropylcellulose) (HPC)",88 % of control
O=C(N/N=C/c1ccccc1Cl)c1cccc2ccccc12,T/C,[6],92 % of control
same,T/C,[7],101 % of control
same,T/C,[8],103 % of control
COc1cc2c(cc1NC(C)=O)C(=O)CCCC2,T/C,"dose: 50.0 mg/kg/injection, schedule: Q01DX009 (ip), vehicle: other",92 % of control
same,T/C,"dose: 100.0 mg/kg/injection, schedule: Q01DX009 (ip), vehicle: other",95 % of control
same,T/C,"dose: 200.0 mg/kg/injection, schedule: Q01DX009 (ip), vehicle: other",92 % of control
c1ccc2cc3cc4cc5ccccc5cc4cc3cc2c1,T/C,"dose: 50.0 mg/kg/injection, schedule: Q01DX009 (ip), vehicle: saline",97 % of control
same,T/C,[9],101 % of control
same,T/C,[10],101 % of control
CCCCCCCCCCCCCCCCCCNC(=O)N(C)C1CCCCC1,T/C,[1],88 % of control
same,T/C,[2],89 % of control
same,T/C,[3],101 % of control
Cc1cc(C)c(C(=O)OC(c2ccccc2)C(c2ccccc2)N2CCOCC2)c(C)c1 (stereo not drawn),T/C,"dose: 75.0 mg/kg/injection, schedule: Q01DX001 (ip), vehicle: saline",96 % of control
same,T/C,"dose: 150.0 mg/kg/injection, schedule: Q01DX001 (ip), vehicle: saline",97 % of control
same,T/C,"dose: 300.0 mg/kg/injection, schedule: Q01DX001 (ip), vehicle: saline",86 % of control
Nc1ncc(Br)cn1,T/C,[11],105 % of control
same,T/C,[12],100 % of control
same,T/C,[13],102 % of control
CC1CCc2cc3ccccc3nc21 (stereo not drawn),T/C,[14],104 % of control
same,T/C,[4],104 % of control
same,T/C,[5],112 % of control
C/C=C1\CN2CCc3c([nH]c4ccccc34)C2CC1CC(=O)N(C)C (stereo not drawn),T/C,[11],96 % of control
same,T/C,[12],88 % of control
O=C(NCCCl)NCC1CCCO1 (stereo not drawn),T/C,"dose: 50.0 mg/kg/injection, schedule: Q04DX003 (ip), vehicle: Klucel (hydroxypropylcellulose) (HPC)",103 % of control
same,T/C,[15],103 % of control
same,T/C,[16],103 % of control
same,T/C,[17],90 % of control
N#CCc1ccccc1S(=O)(=O)O,T/C,[9],105 % of control
same,T/C,[18],98 % of control
same,T/C,[10],100 % of control
same,T/C,[19],102 % of control
same,T/C,"dose: 400.0 mg/kg/injection, schedule: Q01DX009 (ip), vehicle: saline",103 % of control
same,T/C,"dose: 400.0 mg/kg/injection, schedule: Q04DX003 (ip), vehicle: saline",101 % of control
C#CCOC(=O)C(Cl)(Cl)Cl,T/C,"dose: 100.0 mg/kg/injection, schedule: Q04DX002 (ip), vehicle: other",107 % of control
same,T/C,"dose: 200.0 mg/kg/injection, schedule: Q04DX002 (ip), vehicle: other",96 % of control
CN=C(NCCCN1CCOCC1)c1ccc(NC(=O)c2ccc(C(=O)Nc3ccc(C(=NC)NCCCN4CCOCC4)cc3)cc2)cc1,T/C,"dose: 12.5 mg/kg/injection, schedule: Q01DX Z (ip), vehicle: water",103 % of control
same,T/C,"dose: 25.0 mg/kg/injection, schedule: Q01DX Z (ip), vehicle: water",113 % of control
Cc1cc(C)c2c(C#N)cn(-c3ccc(Cl)cc3)c2n1,T/C,[6],87 % of control
same,T/C,[7],97 % of control
same,T/C,[8],91 % of control
CC12CCC(CC1)C2C(=O)O (stereo not drawn),T/C,"dose: 75.0 mg/kg/injection, schedule: Q01DX009 (ip), vehicle: saline with Tween-80",106 % of control
same,T/C,[11],102 % of control
same,T/C,"dose: 150.0 mg/kg/injection, schedule: Q01DX009 (ip), vehicle: saline with Tween-80",93 % of control
same,T/C,[12],98 % of control
same,T/C,"dose: 300.0 mg/kg/injection, schedule: Q01DX009 (ip), vehicle: saline with Tween-80",98 % of control
same,T/C,[13],102 % of control
CC(=O)OC(C)(C)C1CCC2(C)COC3(C)CC(=O)OC23C1 (stereo not drawn),T/C,"dose: 33.0 mg/kg/injection, schedule: Q04DX003 (ip), vehicle: saline",101 % of control
same,T/C,"dose: 66.0 mg/kg/injection, schedule: Q04DX003 (ip), vehicle: saline",101 % of control
CC1(CCC(=O)/C=C/c2ccccc2)CCC/C(=C/c2ccccc2)C1=O (stereo not drawn),T/C,"dose: 12.5 mg/kg/injection, schedule: Q01DX009 (ip), vehicle: Klucel (hydroxypropylcellulose) (HPC)",97 % of control
same,T/C,"dose: 25.0 mg/kg/injection, schedule: Q01DX009 (ip), vehicle: Klucel (hydroxypropylcellulose) (HPC)",101 % of control
same,T/C,"dose: 50.0 mg/kg/injection, schedule: Q01DX009 (ip), vehicle: Klucel (hydroxypropylcellulose) (HPC)",103 % of control
same,T/C,[15],91 % of control
same,T/C,[16],91 % of control
same,T/C,[17],91 % of control
[CH3][Pb]([CH3])([CH3])[I],T/C,[15],103 % of control
same,T/C,[16],98 % of control
same,T/C,[17],94 % of control
Cc1cccc(-c2nnc(C(Cl)(Cl)Cl)o2)c1,T/C,[15],106 % of control
same,T/C,[16],97 % of control
same,T/C,[17],97 % of control
CC/C=C(CC)/C(CC)=C(\Br)CC,T/C,[18],94 % of control
same,T/C,[19],92 % of control
Cc1c(CNc2ccc(C(=O)NC(CC(=O)O)CC(=O)O)cc2)ccc2nc(N)nc(N)c12,T/C,"dose: 0.11 mg/kg/injection, schedule: Q01DX009 (ip), vehicle: saline",97 % of control
same,T/C,"dose: 0.15 mg/kg/injection, schedule: Q01DX009 (ip), vehicle: saline",107 % of control
same,T/C,"dose: 0.17 mg/kg/injection, schedule: Q01DX009 (ip), vehicle: saline",178 % of control
same,T/C,"dose: 0.27 mg/kg/injection, schedule: Q01DX009 (ip), vehicle: saline",161 % of control
same,T/C,"dose: 0.62 mg/kg/injection, schedule: Q01DX009 (ip), vehicle: saline",156 % of control and 187 % of control
same,T/C,"dose: 1.25 mg/kg/injection, schedule: Q01DX009 (ip), vehicle: saline",112 % of control and 121 % of control
same,T/C,"dose: 2.5 mg/kg/injection, schedule: Q04DX003 (ip), vehicle: saline",175 % of control
same,T/C,"dose: 4.4 mg/kg/injection, schedule: Q01DX009 (ip), vehicle: other",91 % of control
same,T/C,"dose: 10.0 mg/kg/injection, schedule: Q01DX001 (ip), vehicle: other",173 % of control
same,T/C,"dose: 10.0 mg/kg/injection, schedule: Q01DX001 (ip), vehicle: saline",168 % of control
same,T/C,"dose: 10.0 mg/kg/injection, schedule: Q04DX003 (ip), vehicle: saline",102 % of control
same,T/C,"dose: 20.0 mg/kg/injection, schedule: Q01DX001 (ip), vehicle: saline",151 % of control
CC(C)CN1CC(Br)C(=O)NC1=O (stereo not drawn),T/C,"dose: 25.0 mg/kg/injection, schedule: Q01DX Z (ip), vehicle: methylcellulose (MC)",92 % of control
same,T/C,"dose: 50.0 mg/kg/injection, schedule: Q01DX Z (ip), vehicle: methylcellulose (MC)",88 % of control
CCOC(=O)C(=CNc1cccc2cnccc12)C(=O)OCC,T/C,[14],91 % of control
same,T/C,[4],88 % of control
same,T/C,[5],88 % of control
CN(C)c1ccc([N+](=O)[O-])c2c1CCC2,T/C,"dose: 50.0 mg/kg/injection, schedule: Q01DX001 (ip), vehicle: saline",111 % of control
same,T/C,[6],90 % of control
same,T/C,[7],106 % of control
same,T/C,[8],106 % of control
